Laboratory results taken from patent US10029982B2, “Light absorptive compound, polymer composition containing the compound, polymer film, and cured layer” (Sumitomo Chemical Company, Limited, priority 2015, dated 2018).

Columns and labels:
[1] = Solubility test in various solvents; type: physicochemical; conditions: room temperature 25±3° C., visually confirmed 60 minutes after preparation; for Solubility in various solvents MEK: 2-butanone; for Solubility in various solvents IPA: 2-propanol; for Solubility in various solvents CHF: chloroform; for Solubility in various solvents EAC: ethyl acetate; for Solubility in various solvents PGMEA: propylene glycol monomethyl ether acetate; for Solubility in various solvents TOL: toluene
Description: The compound UVA-01 (50 mg) obtained by the method described in Synthesis Example 1 was mixed with 450 mg of the solvent described below to prepare a 10% by mass solution. […] Also, 50 mg of UVA-01 was mixed with 950 mg of the solvent described below to prepare a 5% by mass solution, and the same solubility test was performed. The solubility of the compound UVA-01 was visually confirmed in 60 minutes after preparation of each solution. Incidentally, the criteria for evaluation of the test results are as follows.
A: soluble by 10% by mass or more
B: soluble by 5% by mass or more and less than 10% by mass
C: soluble by less than 5% by mass
2-butanone (manufactured by KANTO CHEMICAL CO., INC., hereinafter abbreviated as MEK) 2-propanol (manufactured by NACALAI TESQUE, INC., hereinafter abbreviated as IPA) toluene (manufactured by NACALAI TESQUE, INC., hereinafter abbreviated as TOL) ethyl acetate (manufactured by NACALAI TESQUE, INC., hereinafter abbreviated as EAC) chloroform (manufactured by KANTO CHEMICAL CO., INC., hereinafter abbreviated as CHF) propylene glycol monomethyl ether acetate (manufactured by Tokyo Chemical Industry Co., Ltd., hereinafter abbreviated as PGMEA) The solubility test was performed in the same manner as in Example 1 except for replacing UVA-01 with UVA-02 or UVA-03.
The solubility test was performed in the same manner as in Example 1 except for replacing UVA-01 with UVA-R01.

[2] = Absorption measurement of the compound with spectrophotometer UV-3150; type: physicochemical; conditions: in 2-butanone
Text: The compound (I) preferably satisfies the following formula (a). ε(420)/ε(400)≤0.4 (a)
The smaller value offers a transparent compound with less yellowness.
Also, the compound (I) preferably satisfies the following formulae (b) and (c) in addition to the formula (a). λmax<420 nm (b) ε(400)≥40 (c)
In the formula (b), λmax denotes maximum absorption wavelength of the compound (I). In the formula (c), ε(400) denotes gram absorption coefficient at a wavelength of 400 nm, and the unit of gram absorption coefficient is defined by L/(g·cm). […]
A compound UVA-R01 was synthesized in accordance with the method described in Patent Literature (DE101 09 243 A1). Refinement was performed by subjecting the solution to column chromatography (silica gel). When absorption maximum wavelength (λmax) was measured by using a spectrophotometer UV-3150 (manufactured by SHIMADZU CORPORATION), the results were such that λmax=389 nm (in 2-butanone), ε(400) was 146 L/(g·cm), and ε(420)/ε(400) was 0.0122. Then, the following peaks were observed through ^1H-NMR analysis, so that it was confirmed that the compound UVA-R01 was produced.

Row | Compound | Solubility in various solvents MEK [1] | Solubility in various solvents IPA [1] | Solubility in various solvents CHF [1] | Solubility in various solvents EAC [1] | Solubility in various solvents PGMEA [1] | Solubility in various solvents TOL [1] | absorption maximum wavelength (λmax) [2] [nm] | ε(400), gram absorption coefficient at a wavelength of 400 nm [2] [L/g/cm] | ε(420)/ε(400) [2]
1 | CCOCCOC(=O)/C(C#N)=C\C=C1/CCCN1C [UVA-01] | A (soluble by 10% by mass or more) | A (soluble by 10% by mass or more) | A (soluble by 10% by mass or more) | A (soluble by 10% by mass or more) | A (soluble by 10% by mass or more) | A (soluble by 10% by mass or more) | 389 | 125 | 0.0153
2 | COCCOCCOCCOC(=O)/C(C#N)=C\C=C1/CCCN1C [UVA-02] | A (soluble by 10% by mass or more) | A (soluble by 10% by mass or more) | A (soluble by 10% by mass or more) | A (soluble by 10% by mass or more) | A (soluble by 10% by mass or more) | A (soluble by 10% by mass or more) | 388 | 95.2 | 0.0161
3 | CCCCC(CC)COC(=O)/C(C#N)=C\C=C1/CCCN1C (stereo not drawn) [UVA-03] | A (soluble by 10% by mass or more) | A (soluble by 10% by mass or more) | A (soluble by 10% by mass or more) | A (soluble by 10% by mass or more) | B (soluble by 5% by mass or more and less than 10% by mass) | A (soluble by 10% by mass or more) | 389 | 108 | 0.0132
4 | CCOC(=O)/C(C#N)=C\C=C1/CCCN1C [UVA-R01, reference compound] | C (soluble by less than 5% by mass) | C (soluble by less than 5% by mass) | C (soluble by less than 5% by mass) | C (soluble by less than 5% by mass) | C (soluble by less than 5% by mass) | C (soluble by less than 5% by mass) | 389 | 146 | 0.0122
